Biological target: Btk (Homo sapiens (Human), UniProt Q06187)
Experiment: Btk in vitro inhibitory activity (one of Method A TR-FRET, Method B mobility shift, Method C radiometric filter binding)
Format: biochemical
Details: determined using one of the methods outlined in Example 36a, 36b and 36c
Method: Btk kinase activity is determined using a time-resolved fluorescence resonance energy transfer (TR-FRET) methodology. Measurements are performed in a reaction volume of 50 μL using 96-well assay plates. […] The reaction is quenched by the addition of 1.2 equivalents of EDTA (relative to divalent cation) in 25 μL of 1× Lance buffer (Perkin-Elmer). […] The TR-FRET signal is measured on a multimode plate reader with an excitation wavelength (λEx) of 330 nm and detection wavelengths (λEm) of 615 and 665 nm. Activity is determined by the ratio of the fluorescence at 665 nm to that at 615 nm. For each compound, enzyme activity is measured at various concentrations of compound. Negative control reactions are performed in the absence of inhibitor in replicates of six, and two no-enzyme controls are used to determine baseline fluorescence levels Inhibition constants, Ki(app), ware obtained using the program BatchKi (Kuzmic et al. (2000), Anal. Biochem. 286:45-50). IC50s are obtained according to the equation: IC50={Ki(app)/(1+[ATP]/Km^ATP)}+[E]total/2;
Kinase activity is measured in vitro using electrophoretic mobility shift assay. The kinase reactions are assembled in a total volume of 25 μL in 384 well plates. […] The reaction is incubated for one hour and is quenched by the addition of 45 μL of termination buffer (100 mM HEPES, pH7.5, 0.01% Triton X-100, 30 mM EDTA). The terminated reactions are analyzed using 12 channel LabChip® 3000 microfluidic detection instrument (Caliper Life Sciences). […] Change in the relative fluorescence intensity of the substrate and product peaks is the parameter measured, reflecting enzyme activity. In the presence of an inhibitor, the ratio between product and substrate is altered: the signal of the product decreases, while the signal of the substrate increases.
Activity in each sample is determined as the product to sum ratio (PSR):P/(S+P), where P is the peak height of the product peptide and S is the peak height of the substrate peptide. For each compound, enzyme activity is measured at various concentrations (12 concentrations of compound spaced by 3× dilution intervals). Negative control samples (0%-inhibition in the absence of inhibitor) and positive control samples (100%-inhibition, in the presence of 20 mM EDTA) are assembled in replicates of four and are used to calculate %-inhibition values for each inhibitor at each concentration. Percent inhibition (Pinh) is determined using following equation: Pinh=(PSR0%−PSRinh)/(PSR0%−PSR100%)*100, where PSRinh is the product sum ratio in the presence of inhibitor, PSR0% is the average product sum ration in the absence of inhibitor and PSR100% is the average product sum ratio in 100%-inhibition control samples;
The IC50 values of inhibitors are determined by 4 parameter sigmoidal dose-response model fitting of the inhibition curves (Pinh versus inhibitor concentration) using XLfit 4 software.
IC50 values and curve fits were obtained using Prism (GraphPad Software).
The degree of Btk inhibition was determined using one of the methods outlined in Example 36a, 36b and 36c.

Chain of Btk (Q06187 whole entry): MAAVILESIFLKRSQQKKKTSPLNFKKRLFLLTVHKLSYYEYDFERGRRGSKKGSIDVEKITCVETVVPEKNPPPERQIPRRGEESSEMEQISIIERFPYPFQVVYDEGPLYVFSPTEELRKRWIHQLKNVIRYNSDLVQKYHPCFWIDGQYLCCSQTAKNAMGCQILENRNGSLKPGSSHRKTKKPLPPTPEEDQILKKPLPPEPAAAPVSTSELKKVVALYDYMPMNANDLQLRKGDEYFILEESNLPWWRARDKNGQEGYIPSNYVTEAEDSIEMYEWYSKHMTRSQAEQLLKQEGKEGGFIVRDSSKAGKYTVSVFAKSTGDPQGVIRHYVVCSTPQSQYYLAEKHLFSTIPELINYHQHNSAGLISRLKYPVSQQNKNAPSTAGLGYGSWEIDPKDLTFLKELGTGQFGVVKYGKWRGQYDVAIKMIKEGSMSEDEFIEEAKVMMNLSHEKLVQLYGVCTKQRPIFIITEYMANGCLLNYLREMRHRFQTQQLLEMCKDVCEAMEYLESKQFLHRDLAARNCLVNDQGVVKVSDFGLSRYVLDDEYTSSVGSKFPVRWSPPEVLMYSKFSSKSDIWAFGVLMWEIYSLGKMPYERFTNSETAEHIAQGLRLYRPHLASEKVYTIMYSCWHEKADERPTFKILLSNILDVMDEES

SMILES | IC50 [nM]
CN(C)C/C=C/C(=O)N(C)c1cccc(-n2c(=O)n(-c3ccc(C(=O)Nc4ncccc4F)cc3)c3c(N)ncnc32)c1 [Compound 13, (E)-4-(6-amino-9-(3-(4-(dimethylamino)-N-methylbut-2-enamido)phenyl)-8-oxo-8,9-dihydro-7H-purin-7-yl)-N-(3-fluoropyridin-2-yl)benzamide] | 100 to 1000
CN(C)C/C=C/C(=O)N(C)c1cccc(-n2c(=O)n(-c3ccc(C(=O)Nc4nc5ccccc5s4)cc3)c3c(N)ncnc32)c1 [Compound 23, (E)-4-(6-amino-9-(3-(4-(dimethylamino)-N-methylbut-2-enamido)phenyl)-8-oxo-8,9-dihydro-7H-purin-7-yl)-N-(benzo[d]thiazol-2-yl)benzamide] | < 100
CCCc1ccnc(NC(=O)c2ccc(-n3c(=O)n(-c4cccc(N(C)C(=O)/C=C/CN(C)C)c4)c4ncnc(N)c43)cc2)c1 [Compound 9, (E)-4-(6-amino-9-(3-(4-(dimethylamino)-N-methylbut-2-enamido)phenyl)-8-oxo-8,9-dihydro-7H-purin-7-yl)-N-(4-propylpyridin-2-yl)benzamide] | < 100
Cc1nnc(NC(=O)c2ccc(-n3c(=O)n(-c4cccc(N(C)C(=O)/C=C/CN(C)C)c4)c4ncnc(N)c43)cc2)s1 [Compound 24, (E)-4-(6-amino-9-(3-(4-(dimethylamino)-N-methylbut-2-enamido)phenyl)-8-oxo-8,9-dihydro-7H-purin-7-yl)-N-(5-methyl-1,3,4-thiadiazol-2-yl)benzamide] | 1000 to 10000
Cc1csc(NC(=O)c2ccc(-n3c(=O)n(-c4cccc(N(C)C(=O)/C=C/CN(C)C)c4)c4ncnc(N)c43)cc2)n1 [Compound 20, (E)-4-(6-amino-9-(3-(4-(dimethylamino)-N-methylbut-2-enamido)phenyl)-8-oxo-8,9-dihydro-7H-purin-7-yl)-N-(4-methylthiazol-2-yl)benzamide] | < 100
CN(C)C/C=C/C(=O)N(C)c1cccc(-n2c(=O)n(-c3ccc(C(=O)Nc4ccc(F)cn4)cc3)c3c(N)ncnc32)c1 [Compound 14, (E)-4-(6-amino-9-(3-(4-(dimethylamino)-N-methylbut-2-enamido)phenyl)-8-oxo-8,9-dihydro-7H-purin-7-yl)-N-(5-fluoropyridin-2-yl)benzamide] | < 100
C=CC(=O)N(C)c1cccc(-n2c(=O)n(-c3ccc(C(=O)Nc4ccccn4)cc3)c3c(N)ncnc32)c1 [Compound 29, 4-(6-amino-9-(3-(N-methylacrylamido)phenyl)-8-oxo-8,9-dihydro-7H-purin-7-yl)-N-(pyridin-2-yl)benzamide] | < 100

The next lines start with the values.

IC50 [nM] | SMILES
< 100 | Cc1nc(NC(=O)c2ccc(-n3c(=O)n(-c4cccc(N(C)C(=O)/C=C/CN(C)C)c4)c4ncnc(N)c43)cc2)sc1C [Compound 21, (E)-4-(6-amino-9-(3-(4-(dimethylamino)-N-methylbut-2-enamido)phenyl)-8-oxo-8,9-dihydro-7H-purin-7-yl)-N-(4,5-dimethylthiazol-2-yl)benzamide]
< 100 | CN(C(=O)/C=C/CN1CCCC1)c1cccc(-n2c(=O)n(-c3ccc(Oc4ccccc4)cc3)c3c(N)ncnc32)c1 [Compound 52, (E)-N-(3-(6-amino-8-oxo-7-(4-phenoxyphenyl)-7H-purin-9(8H)-yl)phenyl)-N-methyl-4-(pyrrolidin-1-yl)but-2-enamide]
< 100 | CNC(=O)/C(C#N)=C/c1cccc(-n2c(=O)n(-c3ccc(Oc4ccccc4)cc3)c3c(N)ncnc32)c1 [Compound 44, (E)-3-(3-(6-amino-8-oxo-7-(4-phenoxyphenyl)-7H-purin-9(8H)-yl)phenyl)-2-cyano-N-methylacrylamide]
100 to 1000 | Cc1cc(NC(=O)c2ccc(-n3c(=O)n(-c4cccc(N(C)C(=O)/C=C/CN(C)C)c4)c4ncnc(N)c43)cc2)sn1 [Compound 25, (E)-4-(6-amino-9-(3-(4-(dimethylamino)-N-methylbut-2-enamido)phenyl)-8-oxo-8,9-dihydro-7H-purin-7-yl)-N-(3-methylisothiazol-5-yl)benzamide]
< 100 | CN(C)C/C=C/C(=O)N(C)c1cccc(-n2c(=O)n(-c3ccc(C(=O)Nc4cccc(C(F)(F)F)c4)cc3)c3c(N)ncnc32)c1 [Compound 11, (E)-4-(6-amino-9-(3-(4-(dimethylamino)-N-methylbut-2-enamido)phenyl)-8-oxo-8,9-dihydro-7H-purin-7-yl)-N-(3-(trifluoromethyl)phenyl)benzamide]
< 100 | CCc1ccnc(NC(=O)c2ccc(-n3c(=O)n(-c4cccc(N(C)C(=O)/C=C/CN(C)C)c4)c4ncnc(N)c43)cc2)c1 [Compound 8, (E)-4-(6-amino-9-(3-(4-(dimethylamino)-N-methylbut-2-enamido)phenyl)-8-oxo-8,9-dihydro-7H-purin-7-yl)-N-(4-ethylpyridin-2-yl)benzamide]
